Measured values as given in ChEMBL document CHEMBL1137870, “Synthesis and evaluation of 2-amino-8-alkoxy quinolines as MCHr1 antagonists. Part 2” (Bioorg Med Chem Lett, 2004).

tested on: not listed separately; assay: Area under curve in brain was determined at the peroral dose of 10 mg/kg in diet-induced obese (DIO) mice; type: ADME, organism-based; parameters: dose 10 mg/kg, route oral; details: mouse, in vivo, po

AUC [ng·h/mL]	Compound
11	N#Cc1cccc(C(=O)NCCCOc2cccc3ccc(N)nc23)c1
9520	Nc1ccc2cccc(OCCCNCc3ccc(Cl)c(C(F)(F)F)c3)c2n1
68	Nc1ccc2cccc(OCCCNC(=O)c3cccc(OC(F)(F)F)c3)c2n1

tested on: not listed separately; assay: Brain/plasma ratio was determined at peroral dose of 10 mg/kg in diet-induced obese (DIO) mice; type: ADME, organism-based; parameters: dose 10 mg/kg, route oral; details: mouse, brain and plasma, po

Kp	Compound
0.03	N#Cc1cccc(C(=O)NCCCOc2cccc3ccc(N)nc23)c1
0.96	Nc1ccc2cccc(OCCCNCc3ccc(Cl)c(C(F)(F)F)c3)c2n1
0.2	Nc1ccc2cccc(OCCCNC(=O)c3cccc(OC(F)(F)F)c3)c2n1

biological target: T1, Melanin-concentrating hormone receptor 1 (Homo sapiens, UniProt Q99705); assay: Concentration required to inhibit 50% of melanin-concentrating hormone induced [Ca2+] flux in IMR-32 cells measured by using a fluorometric imaging plate reader; type: functional, cell-based; details: not given
T1 sequence (Q99705 whole entry): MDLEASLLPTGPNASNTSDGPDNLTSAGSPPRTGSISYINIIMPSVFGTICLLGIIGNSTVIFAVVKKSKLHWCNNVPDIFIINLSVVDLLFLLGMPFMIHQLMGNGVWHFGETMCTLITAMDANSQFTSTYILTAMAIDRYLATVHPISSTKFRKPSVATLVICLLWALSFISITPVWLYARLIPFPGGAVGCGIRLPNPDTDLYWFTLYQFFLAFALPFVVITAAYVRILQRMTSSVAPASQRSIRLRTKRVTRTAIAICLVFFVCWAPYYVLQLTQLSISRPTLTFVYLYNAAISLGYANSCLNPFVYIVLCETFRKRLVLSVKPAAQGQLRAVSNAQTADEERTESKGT

Compound	IC50 [nM]
N#Cc1cccc(C(=O)NCCCOc2cccc3ccc(NCc4ccc(-c5ccc(Cl)cc5)o4)nc23)c1	40
Nc1ccc2cccc(OCCCNC(=O)Nc3ccc4c(c3)OCO4)c2n1	110
Nc1ccc2cccc(OCCCNC(=O)c3ccc4c(c3)OCO4)c2n1	70
Nc1ccc2cccc(OCCCNC(=O)Nc3cccc(Cl)c3)c2n1	8
CC(CN1CCCCC1)Oc1cccc2ccc(N)nc12 (stereo not given)	290
N#Cc1cccc(C(=O)NCCCOc2cccc3ccc(N)nc23)c1	7
CC(CN1CCOCC1)Oc1cccc2ccc(N)nc12 (stereo not given)	190
CC(CN1CCCC1)Oc1cccc2ccc(N)nc12 (stereo not given)	360
Nc1ccc2cccc(OCCCNc3ccc4c(c3)OC(F)(F)O4)c2n1	100
Nc1ccc2cccc(OCCCNc3ccc4c(c3)OCO4)c2n1	270
CC(C)c1ccc(C(=O)NCCCOc2cccc3ccc(N)nc23)cc1	140
O=C(NCCCOc1cccc2ccc(NCc3ccc(-c4ccccc4Cl)o3)nc12)Nc1ccc2c(c1)OCO2	3110
O=C(NCCCOc1cccc2ccc(NCc3ccc(-c4ccccc4Cl)o3)nc12)c1cccc(Cl)c1	20
N#Cc1cccc(C(=O)NCCCOc2cccc3ccc(NCc4ccc(-c5cccc(Cl)c5)o4)nc23)c1	10
CCCNc1ccc2cccc(OCCCNC(=O)c3cccc(Cl)c3)c2n1	1120
Nc1ccc2cccc(OCCCNC(=O)c3cccc(OC(F)(F)F)c3)c2n1	20
CC(CNC1CCCCC1)Oc1cccc2ccc(N)nc12 (stereo not given)	2170
CN(C)CC1CCc2cc(NC(=O)c3ccc(-c4ccc(F)cc4)cc3)ccc2C1 (single isomer, unassigned; (-))	872
COCC1=C(C(=O)OC)[C@H](c2ccc(F)c(F)c2)N(C(=O)NCCCN2CCC(c3cccc(NC(C)=O)c3)CC2)C(=O)N1 [SNAP-7941]	15

Results, then the compound that gave them:

IC50 [nM]	Compound
3	Nc1ccc2cccc(OCCCNC(=O)c3cccc(Cl)c3)c2n1
600	COc1cccc(CNCC(C)Oc2cccc3ccc(N)nc23)c1 (stereo not given)
340	CC(CNCc1ccccc1)Oc1cccc2ccc(N)nc12 (stereo not given)
30	COc1cccc(C(=O)NCCCOc2cccc3ccc(N)nc23)c1
580	CC(CNC1CC1)Oc1cccc2ccc(N)nc12 (stereo not given)
30	CC(CNC1CCCC1)Oc1cccc2ccc(N)nc12 (stereo not given)
630	CC(C)c1ccc(CNCCCOc2cccc3ccc(N)nc23)cc1
150	CC(CNCc1ccsc1)Oc1cccc2ccc(N)nc12 (stereo not given)
130	CC(CNCc1ccc2c(c1)OCO2)Oc1cccc2ccc(N)nc12 (stereo not given)
100	CC(CNCc1ccoc1)Oc1cccc2ccc(N)nc12 (stereo not given)
8960	Nc1ccc2cccc(OCCNCc3ccc4c(c3)OCO4)c2n1
> 10000	Nc1ccc2cccc(OCCNCc3ccoc3)c2n1
220	Nc1ccc2cccc(OCCCNCc3ccc(Cl)c(C(F)(F)F)c3)c2n1
8180	CC(CNc1ccc2[nH]ncc2c1)Oc1cccc2ccc(N)nc12 (stereo not given)
460	CC(CNCC1CC1)Oc1cccc2ccc(N)nc12 (stereo not given)
100	CC(CNCC1CCCC1)Oc1cccc2ccc(N)nc12 (stereo not given)

tested on: not listed separately; assay: Half life in plasma was determined at the peroral dose of 10 mg/kg in diet-induced obese (DIO) mice; type: ADME, organism-based; parameters: dose 10 mg/kg, route oral; details: mouse, po

half-life [h]	Compound
1.4	N#Cc1cccc(C(=O)NCCCOc2cccc3ccc(N)nc23)c1
8.9	Nc1ccc2cccc(OCCCNCc3ccc(Cl)c(C(F)(F)F)c3)c2n1
1.2	Nc1ccc2cccc(OCCCNC(=O)c3cccc(OC(F)(F)F)c3)c2n1

tested on: not listed separately; assay: Half life in brain was determined at the peroral dose of 10 mg/kg in diet-induced obese (DIO) mice; type: ADME, organism-based; parameters: dose 10 mg/kg, route oral; details: mouse, po

half-life [h]	Compound
1.6	N#Cc1cccc(C(=O)NCCCOc2cccc3ccc(N)nc23)c1
0.6	Nc1ccc2cccc(OCCCNC(=O)c3cccc(OC(F)(F)F)c3)c2n1

tested on: not listed separately; assay: Area under curve in plasma was determined at the peroral dose of 10 mg/kg in diet-induced obese (DIO) mice; type: ADME, organism-based; parameters: dose 10 mg/kg, route oral; details: mouse, in vivo, po

AUC [ng·h/mL]	Compound
328	N#Cc1cccc(C(=O)NCCCOc2cccc3ccc(N)nc23)c1
9960	Nc1ccc2cccc(OCCCNCc3ccc(Cl)c(C(F)(F)F)c3)c2n1
424	Nc1ccc2cccc(OCCCNC(=O)c3cccc(OC(F)(F)F)c3)c2n1

biological target: T1, Melanin-concentrating hormone receptor 1; assay: Concentration required to inhibit binding of [125I]-MCH radioligand to human Melanin-concentrating hormone receptor 1 in IMR-32 I3.4.2 cell membranes; details: not given

Compound	IC50 [nM]
N#Cc1cccc(C(=O)NCCCOc2cccc3ccc(NCc4ccc(-c5ccc(Cl)cc5)o4)nc23)c1	2
Nc1ccc2cccc(OCCCNC(=O)Nc3ccc4c(c3)OCO4)c2n1	5
Nc1ccc2cccc(OCCCNC(=O)c3ccc4c(c3)OCO4)c2n1	7
Nc1ccc2cccc(OCCCNC(=O)Nc3cccc(Cl)c3)c2n1	0.9
CC(CN1CCCCC1)Oc1cccc2ccc(N)nc12 (stereo not given)	40
N#Cc1cccc(C(=O)NCCCOc2cccc3ccc(N)nc23)c1	3
CC(CN1CCOCC1)Oc1cccc2ccc(N)nc12 (stereo not given)	80
CC(CN1CCCC1)Oc1cccc2ccc(N)nc12 (stereo not given)	70
Nc1ccc2cccc(OCCCNc3ccc4c(c3)OC(F)(F)O4)c2n1	1
Nc1ccc2cccc(OCCCNc3ccc4c(c3)OCO4)c2n1	10
CC(C)c1ccc(C(=O)NCCCOc2cccc3ccc(N)nc23)cc1	60
O=C(NCCCOc1cccc2ccc(NCc3ccc(-c4ccccc4Cl)o3)nc12)Nc1ccc2c(c1)OCO2	50
O=C(NCCCOc1cccc2ccc(NCc3ccc(-c4ccccc4Cl)o3)nc12)c1cccc(Cl)c1	1
N#Cc1cccc(C(=O)NCCCOc2cccc3ccc(NCc4ccc(-c5cccc(Cl)c5)o4)nc23)c1	5
CCCNc1ccc2cccc(OCCCNC(=O)c3cccc(Cl)c3)c2n1	10
Nc1ccc2cccc(OCCCNC(=O)c3cccc(OC(F)(F)F)c3)c2n1	6
CC(CNC1CCCCC1)Oc1cccc2ccc(N)nc12 (stereo not given)	210
CN(C)CC1CCc2cc(NC(=O)c3ccc(-c4ccc(F)cc4)cc3)ccc2C1 (single isomer, unassigned; (-))	85
COCC1=C(C(=O)OC)[C@H](c2ccc(F)c(F)c2)N(C(=O)NCCCN2CCC(c3cccc(NC(C)=O)c3)CC2)C(=O)N1 [SNAP-7941]	3

More lines, now with the values ahead:

IC50 [nM]	Compound
0.4	Nc1ccc2cccc(OCCCNC(=O)c3cccc(Cl)c3)c2n1
1	COc1cccc(CNCC(C)Oc2cccc3ccc(N)nc23)c1 (stereo not given)
50	CC(CC(C)(C)C)Oc1cccc2ccc(N)nc12 (stereo not given)
100	CC(CNCc1ccccc1)Oc1cccc2ccc(N)nc12 (stereo not given)
2	COc1cccc(C(=O)NCCCOc2cccc3ccc(N)nc23)c1
50	CC(CNC1CC1)Oc1cccc2ccc(N)nc12 (stereo not given)
30	CC(CNC1CCCC1)Oc1cccc2ccc(N)nc12 (stereo not given)
10	CC(C)c1ccc(CNCCCOc2cccc3ccc(N)nc23)cc1
10	CC(CNCc1ccsc1)Oc1cccc2ccc(N)nc12 (stereo not given)
30	CC(CNCc1ccc2c(c1)OCO2)Oc1cccc2ccc(N)nc12 (stereo not given)
10	CC(CNCc1ccoc1)Oc1cccc2ccc(N)nc12 (stereo not given)
520	Nc1ccc2cccc(OCCNCc3ccc4c(c3)OCO4)c2n1
660	Nc1ccc2cccc(OCCNCc3ccoc3)c2n1
5	Nc1ccc2cccc(OCCCNCc3ccc(Cl)c(C(F)(F)F)c3)c2n1
530	CC(CNc1ccc2[nH]ncc2c1)Oc1cccc2ccc(N)nc12 (stereo not given)
80	CC(CNCC1CC1)Oc1cccc2ccc(N)nc12 (stereo not given)
100	CC(CNCC1CCCC1)Oc1cccc2ccc(N)nc12 (stereo not given)
